According to PubChem BioAssay (NCI):
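A five-concentration, 48-hour dose response in 96-well plates underlies each endpoint, interpolated linearly between surrounding concentrations. The concentration for full growth arrest is given as TGI.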

Tests used:
Assay in all cases: inhibition of tumour cell growth, NCI panel, 48 h
786-0 renal = tested on: 786-0 renal
A498 renal = tested on: A498 renal
A549 NSCLC = tested on: A549 NSCLC
ACHN renal = tested on: ACHN renal
CAKI-1 renal = tested on: CAKI-1 renal
CCRF-CEM leukemia = tested on: CCRF-CEM leukemia
COLO 205 colon = tested on: COLO 205 colon
DLD-1 colon = tested on: DLD-1 colon
DMS 114 small cell lung = tested on: DMS 114 small cell lung
DMS 273 small cell lung = tested on: DMS 273 small cell lung
EKVX NSCLC = tested on: EKVX NSCLC
HCC-2998 colon = tested on: HCC-2998 colon
HCT-116 colon = tested on: HCT-116 colon
HCT-15 colon = tested on: HCT-15 colon
HL-60(TB) leukemia = tested on: HL-60(TB) leukemia
HOP-18 NSCLC = tested on: HOP-18 NSCLC
HOP-62 NSCLC = tested on: HOP-62 NSCLC
HOP-92 NSCLC = tested on: HOP-92 NSCLC
HT29 colon = tested on: HT29 colon
IGROV1 ovarian = tested on: IGROV1 ovarian
K-562 leukemia = tested on: K-562 leukemia
KM12 colon = tested on: KM12 colon
KM20L2 colon = tested on: KM20L2 colon
LOX IMVI melanoma = tested on: LOX IMVI melanoma
LXFL 529 NSCLC = tested on: LXFL 529 NSCLC
M14 melanoma = tested on: M14 melanoma
M19-MEL melanoma = tested on: M19-MEL melanoma
MALME-3M melanoma = tested on: MALME-3M melanoma
MOLT-4 leukemia = tested on: MOLT-4 leukemia
NCI-H226 lung = tested on: NCI-H226 lung
NCI-H23 lung = tested on: NCI-H23 lung
NCI-H460 lung = tested on: NCI-H460 lung
NCI-H522 lung = tested on: NCI-H522 lung
OVCAR-3 ovarian = tested on: OVCAR-3 ovarian
OVCAR-4 ovarian = tested on: OVCAR-4 ovarian
OVCAR-5 ovarian = tested on: OVCAR-5 ovarian
OVCAR-8 ovarian = tested on: OVCAR-8 ovarian
RPMI-8226 leukemia = tested on: RPMI-8226 leukemia
RXF-631 renal = tested on: RXF-631 renal
SF-268 CNS = tested on: SF-268 CNS
SF-295 CNS = tested on: SF-295 CNS
SF-539 CNS = tested on: SF-539 CNS
SK-MEL-5 melanoma = tested on: SK-MEL-5 melanoma
SK-OV-3 ovarian = tested on: SK-OV-3 ovarian
SN12C renal = tested on: SN12C renal
SNB-19 CNS = tested on: SNB-19 CNS
SNB-78 CNS = tested on: SNB-78 CNS
SW-620 colon = tested on: SW-620 colon
TK-10 renal = tested on: TK-10 renal
U251 CNS = tested on: U251 CNS
UACC-257 melanoma = tested on: UACC-257 melanoma
UACC-62 melanoma = tested on: UACC-62 melanoma
UO-31 renal = tested on: UO-31 renal
XF 498 CNS = tested on: XF 498 CNS

Measured: TGI

O=C(CC(=O)c1cccc2ccccc12)C(=O)Nc1ccc(Cl)cc1
> 100 µM: all assays above
